Key:
Conditions in all cases: mouse, in vivo
[1] = system: enterotoxinogenic strain of Clostridium perfringens; set-up: species or system axenic C3H/He mice
[2] = system: enterotoxinogenic strain of Clostridium perfringens; set-up: species or system axenic C3H/He mice; remark: listed apart in the source
[3] = system: enterotoxinogenic strain of Clostridium perfringens

Compound: OC[C@H]1O[C@@H](O[C@H]2[C@H](O)[C@@H](O)C(O)O[C@@H]2CO)[C@H](O)[C@@H](O)[C@H]1O (some centres unmarked) [Lactose]
- Clostridium perfringens count, Blood [1]: 2.3 log CFU/g
- Clostridium perfringens count, Cecum [1]: 5.5 ± 0.8 log CFU/g
- Clostridium perfringens count, Colon [1]: 6.6 ± 0.1 log CFU/g
- Clostridium perfringens count, Ileum [1]: 3.4 ± 0.8 log CFU/g
- Clostridium perfringens count, Kidney [1]: 3.0 log CFU/g
- Clostridium perfringens count, Liver [1]: 4.4 log CFU/g
- Clostridium perfringens count, Spleen [1]: 4.2 log CFU/g
- bacterial translocation, in words [1]: promotes bacterial translocation
- colonization of the intestine vs control mice, in words [1]: weak colonization of the intestine
- Count (log CFU/g of feces) of Clostridium perfringens [2]: Mice dead or dying
- mice died [3]: 100%
